Experiments:
Assay type in all cases: functional
SK-MEL-2 [1] = test: Cytotoxicity against human SK-MEL-2 cells assessed as cell growth at 10^-8 M after 48 hrs by SRB assay relative to control; conditions: SK-MEL-2, 48 h, read-out: Activity
T47D [2] = test: Cytotoxicity against human T47D cells assessed as cell growth at 10^-7 M after 48 hrs by SRB assay relative to control; conditions: read-out: Activity
[3] = Cytotoxicity against human PC3 cells assessed as cell growth at 10^-4 M after 48 hrs by SRB assay relative to control; conditions: PC-3, 48 h, read-out: Activity
SF-295 [4] = test: Cytotoxicity against human SF295 cells assessed as cell growth at 10^-8 M after 48 hrs by SRB assay relative to control; conditions: SF-295, 48 h, read-out: Activity
Malme-3M = test: Cytotoxicity against human MALME-3M cells assessed as cell growth at 10^-4 M after 48 hrs by SRB assay relative to control; conditions: read-out: Activity
RXF 393 = test: Cytotoxicity against human RXF393 cells assessed as cell growth at 10^-7 M after 48 hrs by SRB assay relative to control; conditions: RXF 393, 48 h, read-out: Activity
MDA-MB-468 = test: Cytotoxicity against human MDA-MB-468 cells assessed as cell growth at 10^-6 M after 48 hrs by SRB assay relative to control; conditions: MDA-MB-468, 48 h, read-out: Activity
IGROV-1 = test: Cytotoxicity against human IGROV1 cells assessed as cell growth at 10^-4 M after 48 hrs by SRB assay relative to control; conditions: IGROV-1, 48 h, read-out: Activity
SNB-19 = test: Cytotoxicity against human SNB19 cells assessed as cell growth at 10^-8 M after 48 hrs by SRB assay relative to control; conditions: SNB-19, 48 h, read-out: Activity
TK-10 = test: Cytotoxicity against human TK10 cells assessed as cell growth at 10^-4 M after 48 hrs by SRB assay relative to control; conditions: TK-10, 48 h, read-out: Activity
[5] = Cytotoxicity against human EKVX cells assessed as cell growth at 10^-8 M after 48 hrs by SRB assay relative to control; conditions: read-out: Activity
LOX IMVI = test: Cytotoxicity against human LOXIMVI cells assessed as cell growth at 10^-4 M after 48 hrs by SRB assay relative to control; conditions: read-out: Activity
SF-268 [6] = test: Cytotoxicity against human SF268 cells assessed as cell growth at 10^-6 M after 48 hrs by SRB assay relative to control; conditions: SF-268, 48 h, read-out: Activity
NCI-H460 [7] = test: Cytotoxicity against human NCI-H460 cells assessed as cell growth at 10^-8 M after 48 hrs by SRB assay relative to control; conditions: NCI-H460, 48 h, read-out: Activity
[8] = Cytotoxicity against human PC3 cells assessed as cell growth at 10^-8 M after 48 hrs by SRB assay relative to control; conditions: PC-3, 48 h, read-out: Activity
T47D [9] = test: Cytotoxicity against human T47D cells assessed as cell growth at 10^-6 M after 48 hrs by SRB assay relative to control; conditions: read-out: Activity
[10] = Cytotoxicity against human OVCAR4 cells assessed as cell growth at 10^-6 M after 48 hrs by SRB assay relative to control; conditions: OVCAR-4, 48 h, read-out: Activity
NCI-H322M = test: Cytotoxicity against human NCI-H322M cells after 48 hrs by SRB assay
[11] = Cytotoxicity against human UACC62 cells assessed as cell growth at 10^-6 M after 48 hrs by SRB assay relative to control; conditions: UACC-62, 48 h, read-out: Activity
SF-295 [12] = test: Cytotoxicity against human SF295 cells after 48 hrs by SRB assay; conditions: SF-295, 48 h
[13] = Cytotoxicity against human HCT15 cells assessed as cell growth at 10^-8 M after 48 hrs by SRB assay relative to control; conditions: HCT-15, 48 h, read-out: Activity
SF-268 [14] = test: Cytotoxicity against human SF268 cells assessed as cell growth at 10^-4 M after 48 hrs by SRB assay relative to control; conditions: SF-268, 48 h, read-out: Activity
SK-MEL-28 = test: Cytotoxicity against human SK-MEL-28 cells after 48 hrs by SRB assay; conditions: SK-MEL-28, 48 h
COLO 205 [15] = test: Cytotoxicity against human COLO205 cells assessed as cell growth at 10^-7 M after 48 hrs by SRB assay relative to control; conditions: COLO 205, 48 h, read-out: Activity
SNB-75 [16] = test: Cytotoxicity against human SNB75 cells assessed as cell growth at 10^-8 M after 48 hrs by SRB assay relative to control; conditions: SNB-75, 48 h, read-out: Activity
COLO 205 [17] = test: Cytotoxicity against human COLO205 cells assessed as cell growth at 10^-6 M after 48 hrs by SRB assay relative to control; conditions: COLO 205, 48 h, read-out: Activity
K562 [18] = test: Cytotoxicity against human K562 cells assessed as cell growth at 10^-6 M after 48 hrs by SRB assay relative to control; conditions: K562, 48 h, read-out: Activity
NCI-H460 [19] = test: Cytotoxicity against human NCI-H460 cells assessed as cell growth at 10^-7 M after 48 hrs by SRB assay relative to control; conditions: NCI-H460, 48 h, read-out: Activity
K562 [20] = test: Cytotoxicity against human K562 cells assessed as cell growth at 10^-7 M after 48 hrs by SRB assay relative to control; conditions: K562, 48 h, read-out: Activity
786-0 = test: Cytotoxicity against human 786-0 cells assessed as cell growth at 10^-8 M after 48 hrs by SRB assay relative to control; conditions: 786-0, 48 h, read-out: Activity
U-251 = test: Cytotoxicity against human U251 cells after 48 hrs by SRB assay; conditions: U-251, 48 h
MCF7 = test: Cytotoxicity against human MCF7 cells assessed as cell growth at 10^-8 M after 48 hrs by SRB assay relative to control; conditions: MCF7, 48 h, read-out: Activity
SK-MEL-2 [21] = test: Cytotoxicity against human SK-MEL-2 cells assessed as cell growth at 10^-4 M after 48 hrs by SRB assay relative to control; conditions: SK-MEL-2, 48 h, read-out: Activity
HT-29 = test: Cytotoxicity against human HT-29 cells assessed as cell growth at 10^-4 M after 48 hrs by SRB assay relative to control; conditions: HT-29, 48 h, read-out: Activity
[22] = Cytotoxicity against human UACC62 cells assessed as cell growth at 10^-8 M after 48 hrs by SRB assay relative to control; conditions: UACC-62, 48 h, read-out: Activity
SK-MEL-5 = test: Cytotoxicity against human SK-MEL-5 cells after 48 hrs by SRB assay; conditions: SK-MEL-5, 48 h
SNB-75 [23] = test: Cytotoxicity against human SNB75 cells after 48 hrs by SRB assay; conditions: SNB-75, 48 h
[24] = read-out: LC50 (the source's name)

Q: With `COc1ccc(CCN2COc3c([C@@H](C)CCC=C(C)C)ccc(C)c3C2)cc1OC` as the compound, how does the growth at 0.01 µM (SK-MEL-2 [1]) read?
A: Its growth at 0.01 µM is 93%.

Q: What about the growth at 0.1 µM (T47D [2]) of the same compound?
A: Its growth at 0.1 µM is 69%.

Q: And the growth at 100 µM [3]?
A: Its growth at 100 µM is -61%.

Q: What about the growth at 0.01 µM (SF-295 [4]) of the same compound?
A: The growth at 0.01 µM was 81%.

Q: What about the growth at 100 µM (Malme-3M) of the same compound?
A: Its growth at 100 µM is -88%.

Q: And the growth at 0.1 µM (RXF 393)?
A: Its growth at 0.1 µM is 88%.

Q: And the growth at 1 µM (MDA-MB-468)?
A: The growth at 1 µM was 62%.

Q: What about the growth at 100 µM (IGROV-1) of the same compound?
A: Its growth at 100 µM is -99%.

Q: And the growth at 0.01 µM (SNB-19)?
A: Its growth at 0.01 µM is 99%.

Q: And the growth at 100 µM (TK-10)?
A: The growth at 100 µM was -88%.

Q: And the growth at 0.01 µM [5]?
A: Its growth at 0.01 µM is 93%.

Q: And the growth at 100 µM (LOX IMVI)?
A: The growth at 100 µM was -93%.

Q: And the growth at 1 µM (SF-268 [6])?
A: The growth at 1 µM was 67%.

Q: What about the growth at 0.01 µM (NCI-H460 [7]) of the same compound?
A: Its growth at 0.01 µM is 101%.

Q: And the growth at 0.01 µM [8]?
A: Its growth at 0.01 µM is 94%.

Q: What about the growth at 1 µM (T47D [9]) of the same compound?
A: The growth at 1 µM was 88%.

Q: And the growth at 1 µM [10]?
A: Its growth at 1 µM is 85%.

Q: And the GI50 (NCI-H322M)?
A: Its GI50 is 3.03 µM.

Q: What about the LC50 (NCI-H322M) of the same compound?
A: Its LC50 is 55.7 µM.

Q: And the TGI (NCI-H322M)?
A: The TGI was 11.6 µM.

Q: And the growth at 1 µM [11]?
A: The growth at 1 µM was 86%.

Q: And the GI50 (SF-295 [12])?
A: The GI50 was 2.02 µM.

Q: And the TGI (SF-295 [12])?
A: Its TGI is 6.56 µM.

Q: And the CC50 (SF-295 [12]; [24])?
A: The CC50 was 29 µM.

Q: What about the growth at 0.01 µM [13] of the same compound?
A: Its growth at 0.01 µM is 85%.

Q: And the growth at 100 µM (SF-268 [14])?
A: The growth at 100 µM was -88%.

Q: And the GI50 (SK-MEL-28)?
A: The GI50 was 2.21 µM.

Q: What about the TGI (SK-MEL-28) of the same compound?
A: Its TGI is 4.94 µM.

Q: And the CC50 (SK-MEL-28; [24])?
A: The CC50 was 13.3 µM.

Q: And the growth at 0.1 µM (COLO 205 [15])?
A: The growth at 0.1 µM was 103%.

Q: And the growth at 0.01 µM (SNB-75 [16])?
A: The growth at 0.01 µM was 79%.

Q: And the growth at 1 µM (COLO 205 [17])?
A: The growth at 1 µM was 100%.

Q: What about the growth at 1 µM (K562 [18]) of the same compound?
A: Its growth at 1 µM is 98%.

Q: What about the growth at 0.1 µM (NCI-H460 [19]) of the same compound?
A: The growth at 0.1 µM was 100%.

Q: What about the growth at 0.1 µM (K562 [20]) of the same compound?
A: Its growth at 0.1 µM is 95%.

Q: And the growth at 0.01 µM (786-0)?
A: Its growth at 0.01 µM is 101%.

Q: And the GI50 (U-251)?
A: The GI50 was 1.91 µM.

Q: And the LC50 (U-251)?
A: Its LC50 is 11.2 µM.

Q: What about the TGI (U-251) of the same compound?
A: The TGI was 4.47 µM.

Q: What about the growth at 0.01 µM (MCF7) of the same compound?
A: Its growth at 0.01 µM is 91%.

Q: What about the growth at 100 µM (SK-MEL-2 [21]) of the same compound?
A: Its growth at 100 µM is -95%.

Q: And the growth at 100 µM (HT-29)?
A: Its growth at 100 µM is -89%.

Q: What about the growth at 0.01 µM [22] of the same compound?
A: Its growth at 0.01 µM is 95%.

Q: What about the GI50 (SK-MEL-5) of the same compound?
A: The GI50 was 1.64 µM.

Q: And the LC50 (SK-MEL-5)?
A: The LC50 was 5.66 µM.

Q: And the TGI (SK-MEL-5)?
A: Its TGI is 3.04 µM.

Q: What about the GI50 (SNB-75 [23]) of the same compound?
A: Its GI50 is 12.5 µM.

Q: What about the LC50 (SNB-75 [23]) of the same compound?
A: The LC50 was greater than 100 µM.

Q: And the TGI (SNB-75 [23])?
A: The TGI was 35.4 µM.
